In a melting point compilation (Tetko et al.; mined from patent text by program, amines drawn as free bases though some values may be those of a salt):

SMILES | melting point [°C]
CC1(C)CC(C)(C)CC(CCC(=O)O)(NC(=O)CCl)C1 | 130 to 131
OCCn1cc(-c2ccccc2)c(OCc2ccccc2)n1 | 115
COC(=O)c1ccc(CCCO)c(C23CC4CC(CC(C4)C2)C3)c1 | 77
CN(C=C(C#N)C#N)c1ccc(Cl)cn1 | 136 to 137
CC12CC(=O)C3C(CCC4CC(O)CCC43C)C1CCC2C(=O)CCO (stereo unspecified) | 156 to 158
CCOC(=O)Cc1ccc(S(=O)(=O)C2CC2)cc1 | 102 to 104
CN1CCN(c2cccc(-c3cnn4cc(C(=O)O)cnc34)c2)CC1 | 274 to 281
O=S(=O)(Oc1ccc(-c2cc3ccc(OS(=O)(=O)c4ccccc4)cc3s2)cc1)c1ccccc1 | 138 to 139
C=CCc1c(O)cc(OC)c2c(C)cc(=O)oc12 | 198
CC(Cl)(Cl)C(NC(=O)c1cc(F)cc(F)c1)NC(=NC#N)Nc1ccc(Cl)nc1 (stereo unspecified) | 195 to 196
CC(C)c1oc(C=Cc2ccccc2)nc1CC(=O)O | 155 to 156
O=C1c2cccc(O)c2C(=O)c2sc(-c3ccccc3)nc21 | 264
COc1ccc(-c2ccccc2)cc1OC1CCCC1 | 62 to 64
Cc1cc(C(=O)O)c(S(N)(=O)=O)o1 | 191
COc1cc2c3c(c1OC)CCc1ccccc1C3CNC2 (stereo unspecified) | > 250
CC(C)c1cc(C(=O)Nc2ccc(C(=O)O)cc2)sc1C(C)C | 219 to 221
NC(=O)c1cccc2c1OC(F)(F)O2 | 130 to 131
Cc1c(C(=O)O)nc2c(=O)[nH]c3cc(F)ccc3n12 | > 250
O=C1c2ccccc2C(=O)N1c1cc(Cl)c(OC(F)(F)C(F)(F)Br)c(Cl)c1 | 62 to 63.5
CCOC(=O)c1ccc(CCN(C)CCCC(C#N)(C(=O)OCC)c2ccc(OC)c(OC)c2)cc1 (stereo unspecified) | 83 to 84
CN1CC(=Cc2ccccc2Cl)C(=O)C(=Cc2ccccc2Cl)C1 | 148 to 150
O=C(c1ccccc1)C(O)c1ccc(Cl)c(Cl)c1 (stereo unspecified) | 204 to 209
CC(C)(C)OC(=O)N1C(C(=O)O)CSC1c1cccnc1 (stereo unspecified) | 167 to 169
CC(C)c1nc2[nH]c(=O)ccc2c(-c2ccc(F)cc2)c1/C=C/C=O | 261
Fc1cccc(OC2CN(C(c3ccccc3)c3ccccc3)C2)c1 | 81 to 82
CC1(C)CCc2c(-c3ccoc3)nc3sc4c(NCCCN5CCCC5=O)ncnc4c3c2C1 | 194 to 195

SMILES | melting point [°C]
O=C(NCCO)c1cc(-c2ccnc(Nc3cccc(OC(F)(F)C(F)F)c3)n2)ccn1 | 159
Cc1ccc(CC2CCCN(c3nc(C)c(C(=O)NCc4ccccc4)s3)C2=O)cc1 (stereo unspecified) | 110 to 113
CC(C)(C)c1cc(SCC(=O)N2CCN(c3ccc(NC(=N)c4cccs4)cc3)CC2)cc(C(C)(C)C)c1O | 67 to 69
Nc1nc(NC2CCCCCCC2)c2ncn(C3C=CC(CO)C3)c2n1 (stereo unspecified) | 171 to 173
Cc1cc(C2(C(F)(F)F)CC(c3ccc(F)cc3)=NO2)ccc1N1C(=O)c2cccc([N+](=O)[O-])c2C1=O (stereo unspecified) | 221 to 222
O=C(O)c1n[nH]c(C(=O)O)c1[N+](=O)[O-] | 325 to 327
COC1CN(S(=O)(=O)c2ccc(Cl)c(C(=O)O)c2)CCC1O (stereo unspecified) | 170 to 174
CN(C)CC1(C2(O)CCCCC2)Cc2cc3c(cc21)NCC3 (stereo unspecified) | 159 to 161
Cc1csc(=S)n1-c1ccc(F)cc1N | 138
C[C@@H](O[C@H]1CCCN(Cc2n[nH]c(=O)[nH]2)[C@H]1c1ccccc1)c1cccc(Br)c1 | 165
CCN(C)C(=O)Nc1cc(C(C)(C)C)on1 | 88.5 to 89.5
N=C(NCc1ccncc1)NN=Cc1c(Cl)cccc1Cl | 159 to 161
O=C1CC(O)CN1S(=O)(=O)c1ccc(N2CCCCC2)cc1 (stereo unspecified) | 158 to 159
O=c1[nH]c2ccc(CCN3CCN(c4nncc5ccccc45)CC3)cc2o1 | 200
O=C(Nc1cccc2c1C(=O)c1c-2n[nH]c1-c1ccc(C(=O)N2CCNCC2)s1)NN1CCOCC1 | 241 to 242
C=CS(=O)(=O)NCCCc1ccc(C2=NNC(=O)CC2)cc1 | 133 to 135
COC(=O)Nc1ccc(N)c([N+](=O)[O-])c1 | 171 to 172
O=C(Nc1ccc(N(Cc2ccccc2)C(=O)OCc2ccccc2)c(F)c1)OCc1ccccc1 | 101 to 102
CN(CCO)C(=O)Cc1ccccc1Cl | 77
NCc1c([N+](=O)[O-])ccc(N2CCCC2)c1Cl | 71 to 73
CCCN(C)S(=O)(=O)c1cccc(-c2cc(-c3nc(-c4ccc(C(F)(F)F)cc4)cc(C(F)(F)F)n3)ccn2)c1 | 144
Cc1nc2cc(F)ccc2c(=O)o1 | 159 to 160
O=C(NCC1CC2C=CC1C2)NS(=O)(=O)C=Cc1ccccc1 (stereo unspecified) | 161 to 164
CCCCC1CCCCCc2c1oc(=O)c(C(c1ccccc1)C1CC1)c2O (stereo unspecified) | 78 to 82
OCc1cnc(-c2ccc(OC(F)(F)F)cc2)nc1 | 84 to 85
Cc1cc(C(=O)O)c(O)cc1C(N)C(=O)O (stereo unspecified) | > 250

SMILES | melting point [°C]
O=C(O)c1ccccc1Oc1ccc(Br)cc1NS(=O)(=O)c1cc(C(F)(F)F)cc(C(F)(F)F)c1 | 158 to 159
CCN(CC)CC(O)CNC(=O)c1c(OC(=O)c2ccccc2)c2ccccc2n1-c1ccccc1 (stereo unspecified) | 130 to 133
CCCc1ccc(Oc2c(-c3ccc(S(C)(=O)=O)cc3)cnn(CC(F)(F)F)c2=O)cc1 | 152 to 153
CC(C)C(=O)c1cc2ccncc2[nH]1 | 224 to 228
CC1(C)CC(=O)C(c2ccc([N+](=O)[O-])cc2Cl)C(=O)C1 | 250 to 253
OC1(C#Cc2cccc(Cl)c2)CCCNC1 (stereo unspecified) | 113 to 114
CCCC1Nc2ccc(S(=O)(=O)N3CCCCC3)cc2S(=O)(=O)N1 (stereo unspecified) | 147 to 151
CC(C)c1nc(CN(C(=O)N[C@H](C(=O)N[C@@H](Cc2ccccc2)C[C@H](O)[C@H](Cc2ccccc2)NC(=O)OCc2cncs2)C(C)C)C2CC2)cs1 | 65 to 66
CC1(C)[C@H](C=C(Cl)Cl)[C@@H]1C(=O)OCc1cccc(-c2ccc(Br)o2)c1 (relative stereo) | 76.5 to 77
CC1(c2ccc(OCc3ccccc3[Si](C)(C)C)cc2)OC(=O)N(Nc2ccccc2)C1=O (stereo unspecified) | 112 to 114
FC(F)(F)c1ccc(-c2cnn(-c3cccnc3)c2)cn1 | 203 to 204
C#CCN1CCC=C(c2ccc(C(C)(C)CCCCCC)cc2O)C1 | 116 to 117
NCc1ccc2ccnc(N)c2c1 | 114 to 117
CCCCCCCCOc1ccc(-n2nc3ccc(C(F)(F)F)cc3n2)c(O)c1 | 79 to 81
CCOC(=O)c1ccc(N2CCC(NCC(O)COc3cccc4[nH]c(=O)[nH]c34)CC2)nc1 (stereo unspecified) | 191 to 193
CC(Cc1c[nH]c2ccccc12)(NC(=O)OC1C2CC3CC(C2)CC1C3)C(=O)NC(CC(=O)O)Cc1ccccc1 (stereo unspecified) | 123 to 137
CN1CCC(NC(=O)c2cc(Cl)ccc2F)CC1 | 143 to 145
COCCCNc1nc2cc(Cl)c(Cl)cc2nc1-c1ccccn1 | 99.5 to 100
COC(=O)CNc1cccc(C(F)(F)F)c1 | 60 to 63
COC1=CCc2cccc(NC(C)=O)c2C1 | 191 to 192
Cn1c(=O)c(-c2c(Cl)cccc2Cl)cc2cnc(NC3CCCCC3)nc21 | 242 to 244
NCCNc1cnnc(N)n1 | 186 to 191
COc1cc(Nc2c(C#N)cnc3cc(-c4ccc(CN5CCC[C@@H]5C(N)=O)o4)ccc23)c(Cl)cc1Cl | 121 to 126
Cc1ccc2c3c(ccc2n1)OC[C@H](CNCC1CCc2sc4ccc(F)cc4c2C1)O3 (stereo partly specified) | 115 to 118
Cc1ccc(Nc2nc(Cl)nc3ccccc23)cc1 | 198 to 199
CCOc1nn(C(=O)NS(=O)(=O)Nc2c(C)cccc2C(=O)CC)c(=O)n1C | 134

SMILES | melting point [°C]
CCOC(=O)C(=CNC1CC1)C(=O)c1c(F)c(C)c(F)c(F)c1[N+](=O)[O-] | 115 to 116
CCCCCCc1cc(C(=O)OCC)c(-c2ccccc2)c(-c2ccccc2)c1C(=O)OCC | 119 to 121
CCCCSc1nc(=O)[nH]cc1F | 113
CC(C)(C)OC(=O)NS(N)(=O)=O | 130 to 131
CNc1cc(N(C)S(=O)(=O)c2ccc(N)cc2)nc(NC)n1 | 79 to 80
Cc1ccc2[nH]c(C)c(C(=O)c3ccc(Cl)c(S(N)(=O)=O)c3)c2c1 | 248 to 250
Cn1cccc1C(=O)Nc1nc(-c2cccc(C#N)c2)c(-n2cncn2)s1 | 245 to 247
CN1CC(C(=O)N(C)Cc2ccc(Cl)c(Cl)c2)=C(O)C1=O | 148 to 150
O=C(NC1(C2CC2)CC1)c1c(NC(=O)c2cc(C(F)(F)F)nn2-c2ncccc2Cl)c(Br)cc2cn[nH]c12 | 212 to 214
Cc1ccc(C=NNC(=O)c2ccc(O)cc2)cc1 | 253
CS(=O)(=O)c1ccc2c(c1)S(=O)(=O)NCN2CCF | 193 to 195
COc1cc2[nH]c(C(=O)O)cc2cc1F | 239 to 240
Clc1ccc(OCc2ccccc2)nn1 | 77 to 78
CCCC(CCC)NC(=O)Nc1ccc(OC)cc1OC | 172 to 173
COC(=O)c1cc(C#CC2(c3ccc(OC)c(OC4CCCC4)c3)CCC(=O)CC2)cc(C(=O)OC)c1 | 134 to 135
COc1ccc2oc(C(=O)c3cc(F)ccc3F)cc2c1 | 75 to 78
Cc1cccc(Nc2nc(-c3ccc(-c4ccccc4)cc3)cs2)n1 | 218 to 222
CC(C)c1cc(C(=O)Nc2ccc(C(=O)O)c(O)c2)oc1C(C)C | 179 to 180
CCCCOC(=O)c1ccc2c(C(=O)c3ccc(OCCN4CCCCC4)cc3)c(-c3ccc(O)cc3)sc2c1 | 87 to 90
COc1ccc(CCN2CCN(c3cccccc3=O)CC2)cc1OC | 83 to 85
COCCOc1cc(N(C)S(=O)(=O)c2nccn2C)c2[nH]c(C(=O)O)cc2c1 | 174 to 175
O=C(O)c1cc(Cl)c(OCc2ccc(Cl)cc2)c(Cl)c1 | 215 to 220
CO/N=C(\C(=O)OC)c1csc(O)n1 | 97 to 98
